What was measured:
[1] = test system: IgG expressing CHO cell line (CHO-2: ATCC CRL 11397, producing IgG4); test: Specific IgG production of CHO cells in supplemented chemically defined medium (sandwich ELISA / AUC); format: cell-based, Chinese hamster; settings: ratio of cumulative IgG production (mg/ml) and AUC at day 11
Experimental: (§1) The cell culture assay was carried out in commercially available IS CHO-CD medium (Irvine Scientific, Cat. No. 91119). To this media, L-Glutamine (2 mM), pluronic acid, hypoxanthine (100 μM) and thymidine (15 μM) were added. Penicillin and streptomycin were added to prevent any bacterial growth during the growth assay. The media was supplemented with methyl-L-3-phenyl lactate or mucic acid, both purchased from Sigma Aldrich, Germany, in varying concentrations (1×10^−3 to 1×10^−1% (w/v), see Table 2). The supplemented medium was mixed with a vortex mixture, filtered using a 0.22 μm filter and subsequently used in a growth assay.
(§2) An IgG expressing CHO cell line was used (CHO-2: ATCC CRL 11397, producing IgG4). The cell lines were grown in the adherent conditions for a few passages and once confluent, they were transferred to animal-free conditions in the supplemented media described in Example 2.
(§3) To measure growth and production curves, Chinese hamster ovary (CHO) cells were grown in suspension culture in baffled flasks. 20×10^6 cells were transferred in 25 ml media to the baffled flasks. Chemically defined media with and without added alpha-hydroxy acid derivatives were tested. No fresh media was added during the growth assay. Cells were counted using the CEDEX HiRes cell counter (Innovatis, Germany). The cell counts were used to calculate the area under the growth curve and represented as dimensionless area under curve (AUC) values as described in detail in Ling, C. X, Huang, J. and Zhang, H. (2003), International joint conferences on artificial intelligence, pp. 329-341. The supernatant samples were taken every alternate days for the IgG production measurements. IgG production was measured using sandwich ELISA method. The specific IgG production was calculated by taking the ratio of cumulative IgG production (in mg/ml) and AUC measured at day 11 of the growth assay. The cells were visually inspected using a phase contrast microscope (Zeiss Axiovert 25, 400× magnification). […] Only single cells were observed and no aggregation of cells was seen. The cell shape was also positively affected. […] This was in contrast with the observation that a lot of cell aggregates were present in CHO cell cultures grown in chemically defined medium without alpha-hydroxy acid derivatives.

[2] = test system: IgG expressing CHO cell line (CHO-2: ATCC CRL 11397, producing IgG4); test: Cell growth of CHO cells in suspension culture (area under growth curve, CEDEX cell counts); format: cell-based, Chinese hamster; settings: dimensionless AUC
Experimental: as §1, §2, §3

[3] = test system: cell culture (antibody production); test: Linear regression of antibody production in cell culture assays against relative concentration of components in plant protein hydrolysates; format: cell-based; settings: linear regression over plant protein hydrolysates, MS Excel SLOPE function
Experimental: Commercial plant protein hydrolysates like SE50MAF-UF, WGE80M-UF, CNE80M-UF, PCE80B obtained from FrieslandCampina Domo, USA were analysed by Liquid chromatography/Mass Spectrometry (LC/MS, LC/MS2) using a Waters Acquity UPLC and a Thermo-Finnigan LTQ mass spectrometer, which consists of an electrospray ionization (ESI) source and linear ion-trap (LIT) mass analyzer. The sample extract was split into two aliquots, dried, then reconstituted in acidic or basic LC-compatible solvents. One aliquot was analyzed using acidic positive ion optimized conditions and the other using basic negative ion optimized conditions in two independent injections using separate dedicated columns. Extracts reconstituted in acidic conditions were gradient eluted using water and methanol both containing 0.1% formic acid, while the basic extracts, which also use water/methanol, contain 6.5 mM ammonium bicarbonate. The MS analysis alternated between MS and data-dependent MS2 scans using dynamic exclusion. Biochemicals were identified by comparison to metabolomic library entries of purified standards or recurrent unknown entities. The combination of chromato-graphic properties and mass spectra gives an indication of a match to the specific compound or an isobaric entity. Thus, an overview of the biochemical components and their relative concentration present in plant protein hydrolysates was generated. Furthermore, all the hydrolysates were tested in the cell culture assays for cell growth and antibody production. […] Using the SLOPE function of Microsoft Excel 2003, the correlation between antibody production and relative concentration of the components was calculated, the results of which are presented in Table 1 below. The higher the positive slope, the higher the importance of a biochemical component in the cell culture. p-values, also calculated using MS Excel's correlation regression function, represent the significance of the values, with the lower the p-value (all between 0 and 1), the more significant the measured value.

Compound | Specific IgG production after 11 days ([1]; 1 × 10^−1 % w/v added) | Cell growth (area under curve) after 14 days ([2]; 1 × 10^−1 % w/v added) | Specific IgG production after 11 days ([1]; 1 × 10^−2 % w/v added) | Specific IgG production after 11 days ([1]; 1 × 10^−3 % w/v added) | SLOPE (correlation of antibody production and relative concentration of the component) [3] | Cell growth (area under curve) after 14 days ([2]; 1 × 10^−2 % w/v added) | Cell growth (area under curve) after 14 days ([2]; 1 × 10^−3 % w/v added)
COC(=O)[C@@H](O)Cc1ccccc1 [Methyl-L-3-phenyl lactate, methyl-L-3-phenyl lactate] | 77.80 | 46.70 | – | – | – | – | –
O=C(O)[C@@H](O)[C@H](O)[C@H](O)[C@@H](O)C(=O)O [Mucic acid, mucic acid] | 84.61 | 48.29 | 90.27 | 90.85 | 2108.11 | 49.64 | 49.88
CC(C)CC(O)C(=O)O (stereo not drawn) [alpha-hydroxyisocaproic acid] | – | – | – | – | 1654.23 | – | –
CC(C)C(O)C(=O)O (stereo not drawn) [alpha-hydroxyisovaleric acid] | – | – | – | – | 2830.96 | – | –
